target: full-length ATR (Homo sapiens (Human), UniProt Q13535); assay: ATR Inhibition Assay (radioactive-phosphate incorporation); format: biochemical; conditions: not given
Description: Compounds were screened for their ability to inhibit ATR kinase using a radioactive-phosphate incorporation assay. Assays were carried out in a mixture of 50 mM Tris/HCl (pH 7.5), 10 mM MgCl2 and 1 mM DTT. Final substrate concentrations were 10 μM [γ-33P]ATP (3 mCi 33P ATP/mmol ATP, Perkin Elmer) and 800 μM target peptide ([…]).
Assays were carried out at 25° C. in the presence of 5 nM full-length ATR. An assay stock buffer solution was prepared containing all of the reagents listed above, with the exception of ATP and the test compound of interest. 13.5 μL of the stock solution was placed in a 96 well plate followed by addition of 2 μL of DMSO stock containing serial dilutions of the test compound (typically starting from a final concentration of 15 μM with 3-fold serial dilutions) in duplicate (final DMSO concentration 7%). The plate was pre-incubated for 10 minutes at 25° C. and the reaction initiated by addition of 15 μL [γ-33P]ATP (final concentration 10 μM).
The reaction was stopped after 24 hours by the addition of 30 μL 0.1 M phosphoric acid containing 2 mM ATP. A multiscreen phosphocellulose filter 96-well plate (Millipore, Cat no. MAPHNOB50) was pretreated with 100 μL 0.2M phosphoric acid prior to the addition of 45 μL of the stopped assay mixture. The plate was washed with 5×200 μL 0.2M phosphoric acid. After drying, 100 μL Optiphase ‘SuperMix’ liquid scintillation cocktail (Perkin Elmer) was added to the well prior to scintillation counting (1450 Microbeta Liquid Scintillation Counter, Wallac).
After removing mean background values for all of the data points, Ki(app) data were calculated from non-linear regression analysis of the initial rate data using the Prism software package (GraphPad Prism version 3.0cx for Macintosh, GraphPad Software, San Diego Calif., USA).
Below is a chart showing the ATR Inhibition Ki values of compounds of the disclosure.

Chain of full-length ATR (Q13535 whole entry): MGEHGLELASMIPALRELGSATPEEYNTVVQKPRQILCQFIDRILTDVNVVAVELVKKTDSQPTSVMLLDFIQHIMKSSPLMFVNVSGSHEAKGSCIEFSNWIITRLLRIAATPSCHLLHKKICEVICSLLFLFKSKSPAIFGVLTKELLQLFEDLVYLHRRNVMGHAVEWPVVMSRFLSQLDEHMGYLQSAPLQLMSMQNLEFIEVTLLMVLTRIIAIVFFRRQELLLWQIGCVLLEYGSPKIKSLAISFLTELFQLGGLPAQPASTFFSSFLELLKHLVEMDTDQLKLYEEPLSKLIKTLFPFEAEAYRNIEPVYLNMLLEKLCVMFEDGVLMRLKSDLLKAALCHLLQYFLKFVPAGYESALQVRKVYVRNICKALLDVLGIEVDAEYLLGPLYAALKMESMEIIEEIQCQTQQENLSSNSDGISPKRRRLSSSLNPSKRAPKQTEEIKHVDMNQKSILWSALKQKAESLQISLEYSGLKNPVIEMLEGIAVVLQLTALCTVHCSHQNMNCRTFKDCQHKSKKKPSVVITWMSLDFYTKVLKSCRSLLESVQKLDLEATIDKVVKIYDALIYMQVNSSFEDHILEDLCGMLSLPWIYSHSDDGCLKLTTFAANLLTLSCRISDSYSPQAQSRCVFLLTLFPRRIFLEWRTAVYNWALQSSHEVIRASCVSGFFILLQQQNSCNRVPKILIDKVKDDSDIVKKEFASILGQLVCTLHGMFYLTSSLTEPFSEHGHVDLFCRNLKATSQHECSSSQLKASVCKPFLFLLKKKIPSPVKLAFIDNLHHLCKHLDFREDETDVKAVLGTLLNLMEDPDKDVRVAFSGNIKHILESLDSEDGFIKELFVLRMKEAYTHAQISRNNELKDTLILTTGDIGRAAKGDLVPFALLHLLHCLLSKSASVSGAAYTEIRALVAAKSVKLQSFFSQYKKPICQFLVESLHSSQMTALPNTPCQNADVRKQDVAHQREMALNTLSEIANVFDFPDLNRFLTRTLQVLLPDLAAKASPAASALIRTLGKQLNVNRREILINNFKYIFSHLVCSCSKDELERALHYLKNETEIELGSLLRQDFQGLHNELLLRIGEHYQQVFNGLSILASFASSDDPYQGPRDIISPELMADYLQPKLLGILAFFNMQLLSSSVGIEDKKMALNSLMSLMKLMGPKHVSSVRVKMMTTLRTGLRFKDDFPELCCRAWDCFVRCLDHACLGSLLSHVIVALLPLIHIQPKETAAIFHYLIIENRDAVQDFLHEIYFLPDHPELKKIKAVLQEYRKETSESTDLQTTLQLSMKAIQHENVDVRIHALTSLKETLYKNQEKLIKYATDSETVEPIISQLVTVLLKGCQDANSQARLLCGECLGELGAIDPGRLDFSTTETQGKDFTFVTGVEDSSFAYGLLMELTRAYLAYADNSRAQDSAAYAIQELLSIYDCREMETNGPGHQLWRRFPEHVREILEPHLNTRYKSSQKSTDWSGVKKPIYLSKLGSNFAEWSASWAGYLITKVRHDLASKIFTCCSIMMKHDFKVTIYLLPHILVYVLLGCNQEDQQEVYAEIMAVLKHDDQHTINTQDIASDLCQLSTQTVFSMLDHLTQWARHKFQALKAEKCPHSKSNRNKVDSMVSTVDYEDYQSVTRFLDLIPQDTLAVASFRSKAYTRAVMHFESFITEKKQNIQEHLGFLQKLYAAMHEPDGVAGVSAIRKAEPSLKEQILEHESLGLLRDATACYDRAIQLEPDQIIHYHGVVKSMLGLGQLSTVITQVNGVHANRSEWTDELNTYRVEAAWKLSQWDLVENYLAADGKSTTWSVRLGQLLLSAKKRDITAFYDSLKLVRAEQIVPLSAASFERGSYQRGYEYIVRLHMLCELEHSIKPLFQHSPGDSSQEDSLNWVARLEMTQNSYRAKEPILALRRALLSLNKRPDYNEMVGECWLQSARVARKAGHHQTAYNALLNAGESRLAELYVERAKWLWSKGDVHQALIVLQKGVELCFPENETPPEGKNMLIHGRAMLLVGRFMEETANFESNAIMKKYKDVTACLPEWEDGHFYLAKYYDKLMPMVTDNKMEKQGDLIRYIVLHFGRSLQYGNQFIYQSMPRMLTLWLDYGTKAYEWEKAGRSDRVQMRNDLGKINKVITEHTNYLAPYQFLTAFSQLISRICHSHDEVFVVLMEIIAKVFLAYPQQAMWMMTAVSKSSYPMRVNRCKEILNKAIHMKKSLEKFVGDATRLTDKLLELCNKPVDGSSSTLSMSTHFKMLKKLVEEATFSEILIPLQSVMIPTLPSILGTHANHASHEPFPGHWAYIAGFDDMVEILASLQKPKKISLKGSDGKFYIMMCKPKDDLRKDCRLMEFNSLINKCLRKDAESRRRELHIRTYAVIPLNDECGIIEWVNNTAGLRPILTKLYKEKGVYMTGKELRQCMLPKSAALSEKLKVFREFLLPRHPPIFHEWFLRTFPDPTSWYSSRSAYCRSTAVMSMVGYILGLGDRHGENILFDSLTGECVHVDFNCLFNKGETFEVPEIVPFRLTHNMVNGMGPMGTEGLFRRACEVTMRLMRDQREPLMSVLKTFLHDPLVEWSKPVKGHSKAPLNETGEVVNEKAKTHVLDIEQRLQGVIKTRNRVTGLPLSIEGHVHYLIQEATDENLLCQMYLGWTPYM

Ki [nM]	SMILES
5 to 50	CCN(CC)C(=O)C(C)n1cc(-c2cnc(N)c(-c3cc(-c4ccc(CNC)cc4)no3)n2)ccc1=O (stereo not drawn) [Compound I-101, 2-(5-(5-amino-6-(3-(4-((methylamino)methyl)phenyl)isoxazol-5-yl)pyrazin-2-yl)-2-oxopyridin-1(2H)-yl)-N,N-diethylpropanamide]

same assay, conditions: ATR Inhibition Ki(app); 10 μM ATP, 800 μM target peptide, 5 nM full-length ATR, 25° C.

SMILES	Ki [nM]
CNCc1ccc(-c2cc(-c3nc(-c4ccc(=O)n(C(C)C)c4)cnc3N)on2)c(OC(C)C)c1 [Compound I-118]	≤ 5
CNCc1ccc(-c2cc(-c3nc(-c4cc(F)c(=O)n(C(C)C)c4)cnc3N)on2)cc1 [Compound I-121]	5 to 50
CCC(C#N)(CC)n1cc(-c2cnc(N)c(-c3cc(-c4ccc(CNC5CC5)cc4F)no3)n2)ccc1=O [Compound I-136]	≤ 5
CCC(CC)n1cc(-c2cnc(N)c(-c3cc(-c4cccc(C5(N)CC5)c4)no3)n2)ccc1=O [Compound I-137]	5 to 50
CCC(CC)n1cc(-c2cnc(N)c(-c3cc(-c4ccc(F)c(C(C)N)c4)no3)n2)ccc1=O (stereo not drawn) [Compound I-141]	≤ 5
CCC(CC)n1cc(-c2cnc(N)c(-c3cc(-c4cccc(C(C)N)c4F)no3)n2)ccc1=O (stereo not drawn) [Compound I-142]	≤ 5
CC(C)(C#N)n1cc(-c2cnc(N)c(-c3cc(-c4ccc(CNC5CC5)cc4)no3)n2)ccc1=O [Compound I-144]	≤ 5
CCC(CC)n1cc(-c2cnc(N)c(-c3cc(-c4cccc(C(C)(C)N)c4)no3)n2)ccc1=O [Compound I-146]	≤ 5
CC(CO)NCc1ccc(-c2cc(-c3nc(-c4ccc(=O)n(C(C)(C)C#N)c4)cnc3N)on2)cc1 (stereo not drawn) [Compound I-147]	≤ 5
CNCc1ccc(-c2nnc(-c3nc(-c4ccc(=O)[nH]c4)cnc3N)o2)cc1 [Compound I-148]	≤ 5
CNCc1ccc(-c2nnc(-c3nc(-c4ccc(=O)n(C(C)C)c4C#N)cnc3N)o2)cc1 [Compound I-149]	5 to 50
CNCc1ccc(-c2nnc(-c3nc(-c4ccc(=O)n(C(C)C)c4C)cnc3N)o2)c(C)c1 [Compound I-150]	50 to 100
CNCc1ccc(-c2nnc(-c3nc(-c4ccc(=O)n(C(C)C)c4C#N)cnc3N)o2)c(C)c1 [Compound I-151]	5 to 50

Results, then the compound that gave them:

Ki [nM]	SMILES
≤ 5	CC(N)c1cccc(-c2cc(-c3nc(-c4ccc(=O)[nH]c4)cnc3N)on2)c1 (stereo not drawn) [Compound I-103]
≤ 5	CC(N)c1cccc(-c2cc(-c3nc(-c4ccc(=O)n(C(C)C(N)=O)c4)cnc3N)on2)c1 (stereo not drawn) [Compound I-104]
≤ 5	CNCc1ccc(-c2cc(-c3nc(-c4ccc(=O)n(C)c4)cnc3N)on2)cc1 [Compound I-108]
≤ 5	CCCn1cc(-c2cnc(N)c(-c3cc(-c4ccc(CNC)cc4)no3)n2)ccc1=O [Compound I-109]
≤ 5	Nc1ncc(-c2ccc(=O)[nH]c2)nc1-c1cc(-c2ccc(CNC3CC3)cc2)no1 [Compound I-111, 5-[5-amino-6-[3-[4-[(cyclopropylamino)methyl]phenyl]isoxazol-5-yl]pyrazin-2-yl]-1H-pyridin-2-one]
≤ 5	Nc1ncc(-c2c[nH]c(=O)c(Cl)c2)nc1-c1cc(-c2ccc(CNC3CC3)cc2)no1 [Compound I-112]
≤ 5	CNCc1ccc(-c2cc(-c3nc(-c4ccc(=O)n(CC5(C)COC5)c4)cnc3N)on2)cc1 [Compound I-113]
≤ 5	CNCc1ccc(-c2cc(-c3nc(-c4c[nH]c(=O)c(C5=CCCCC5)c4)cnc3N)on2)cc1 [Compound I-114]
≤ 5	CNCc1ccc(-c2cc(-c3nc(-c4c[nH]c(=O)c(C5CCCCC5)c4)cnc3N)on2)cc1 [Compound I-115]
≤ 5	CNCc1ccc(-c2cc(-c3nc(-c4ccc(=O)n(C(CO)CO)c4)cnc3N)on2)cc1 [Compound I-117]

From US9630956B2, “Compounds useful as inhibitors of ATR kinase” (Vertex Pharmaceuticals Incorporated, priority 2010, dated 2017)
